From paper PMC6407917, “Identification of GSK3186899/DDD853651 as a Preclinical Development Candidate for the Treatment of Visceral Leishmaniasis” (Journal of Medicinal Chemistry, 2018)

Columns and labels:
Experiment in all cases: biochemical
Parameters in all cases: species or system HEK293/K-562/placenta mixed human extract; Kinobeads chemoproteomic competition binding, quantified by TMT LC-MS/MS, dose response up to 20 uM
[1] = target: CAMK2B (Homo sapiens, UniProt Q13554)
[2] = target: EPHB3 (Homo sapiens, UniProt P54753)
[3] = target: GSK3B (Homo sapiens, UniProt P49841)
[4] = target: HCK (Homo sapiens, UniProt P08631)
[5] = target: MAP3K3 (Homo sapiens, UniProt Q99759)
[6] = target: MAPK11 (Homo sapiens, UniProt Q15759)
[7] = target: NEK6 (Homo sapiens, UniProt Q9HC98)
[8] = target: NEK9 (Homo sapiens, UniProt Q8TD19)
[9] = target: OXSR1 (Homo sapiens, UniProt O95747)
[10] = target: PDIK1L (Homo sapiens, UniProt Q8N165)
[11] = target: PKN1 (Homo sapiens, UniProt Q16512)
[12] = target: RIPK2 (Homo sapiens, UniProt O43353)
[13] = target: RIPK4 (Homo sapiens, UniProt P57078)
[14] = target: STK11 (Homo sapiens, UniProt Q15831)
[15] = target: STK16 (Homo sapiens, UniProt O75716)
[16] = target: STK3 (Homo sapiens, UniProt Q13188)
[17] = target: TAOK2 (Homo sapiens, UniProt Q9UL54)
[18] = target: TEC (Homo sapiens, UniProt P42680)
[19] = target: TEK (Homo sapiens, UniProt Q02763)
[20] = target: TNIK (Homo sapiens, UniProt Q9UKE5)
[21] = target: YWHAZ (Homo sapiens, UniProt P63104)

Measured: IC50

PKN1, sequence (Q16512 whole entry): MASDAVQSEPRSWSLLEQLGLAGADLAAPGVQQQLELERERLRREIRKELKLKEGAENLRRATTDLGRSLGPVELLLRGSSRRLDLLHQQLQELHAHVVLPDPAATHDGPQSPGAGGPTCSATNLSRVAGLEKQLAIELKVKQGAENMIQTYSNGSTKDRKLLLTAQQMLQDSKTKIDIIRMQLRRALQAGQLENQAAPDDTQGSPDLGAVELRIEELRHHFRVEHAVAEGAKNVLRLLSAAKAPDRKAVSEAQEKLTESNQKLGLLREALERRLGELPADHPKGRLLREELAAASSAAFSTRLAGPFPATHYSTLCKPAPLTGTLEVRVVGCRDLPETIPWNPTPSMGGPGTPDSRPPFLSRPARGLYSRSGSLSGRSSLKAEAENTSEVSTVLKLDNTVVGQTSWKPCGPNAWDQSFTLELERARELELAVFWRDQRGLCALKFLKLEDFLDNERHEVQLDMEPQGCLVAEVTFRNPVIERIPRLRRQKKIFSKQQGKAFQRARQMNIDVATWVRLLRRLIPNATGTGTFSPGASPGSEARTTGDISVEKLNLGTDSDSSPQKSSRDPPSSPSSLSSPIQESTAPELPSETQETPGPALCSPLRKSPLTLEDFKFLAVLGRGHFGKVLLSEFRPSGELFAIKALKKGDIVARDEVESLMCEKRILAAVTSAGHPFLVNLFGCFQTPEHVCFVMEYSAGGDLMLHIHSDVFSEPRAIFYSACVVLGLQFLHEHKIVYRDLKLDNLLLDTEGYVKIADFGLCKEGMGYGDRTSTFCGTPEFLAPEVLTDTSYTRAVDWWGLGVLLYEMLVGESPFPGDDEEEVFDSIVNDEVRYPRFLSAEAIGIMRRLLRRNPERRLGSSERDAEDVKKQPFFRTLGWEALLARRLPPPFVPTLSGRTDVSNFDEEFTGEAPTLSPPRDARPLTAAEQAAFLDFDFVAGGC
STK16, sequence (O75716 whole entry): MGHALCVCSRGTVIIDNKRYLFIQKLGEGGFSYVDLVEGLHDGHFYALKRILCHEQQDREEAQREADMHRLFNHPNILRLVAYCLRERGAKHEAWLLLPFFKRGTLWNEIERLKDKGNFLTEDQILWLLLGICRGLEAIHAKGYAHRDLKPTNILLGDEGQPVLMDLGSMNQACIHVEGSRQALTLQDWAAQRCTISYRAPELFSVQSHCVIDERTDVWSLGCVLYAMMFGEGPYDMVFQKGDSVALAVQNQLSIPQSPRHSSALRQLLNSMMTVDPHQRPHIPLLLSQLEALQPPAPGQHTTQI
EPHB3, sequence (P54753 whole entry): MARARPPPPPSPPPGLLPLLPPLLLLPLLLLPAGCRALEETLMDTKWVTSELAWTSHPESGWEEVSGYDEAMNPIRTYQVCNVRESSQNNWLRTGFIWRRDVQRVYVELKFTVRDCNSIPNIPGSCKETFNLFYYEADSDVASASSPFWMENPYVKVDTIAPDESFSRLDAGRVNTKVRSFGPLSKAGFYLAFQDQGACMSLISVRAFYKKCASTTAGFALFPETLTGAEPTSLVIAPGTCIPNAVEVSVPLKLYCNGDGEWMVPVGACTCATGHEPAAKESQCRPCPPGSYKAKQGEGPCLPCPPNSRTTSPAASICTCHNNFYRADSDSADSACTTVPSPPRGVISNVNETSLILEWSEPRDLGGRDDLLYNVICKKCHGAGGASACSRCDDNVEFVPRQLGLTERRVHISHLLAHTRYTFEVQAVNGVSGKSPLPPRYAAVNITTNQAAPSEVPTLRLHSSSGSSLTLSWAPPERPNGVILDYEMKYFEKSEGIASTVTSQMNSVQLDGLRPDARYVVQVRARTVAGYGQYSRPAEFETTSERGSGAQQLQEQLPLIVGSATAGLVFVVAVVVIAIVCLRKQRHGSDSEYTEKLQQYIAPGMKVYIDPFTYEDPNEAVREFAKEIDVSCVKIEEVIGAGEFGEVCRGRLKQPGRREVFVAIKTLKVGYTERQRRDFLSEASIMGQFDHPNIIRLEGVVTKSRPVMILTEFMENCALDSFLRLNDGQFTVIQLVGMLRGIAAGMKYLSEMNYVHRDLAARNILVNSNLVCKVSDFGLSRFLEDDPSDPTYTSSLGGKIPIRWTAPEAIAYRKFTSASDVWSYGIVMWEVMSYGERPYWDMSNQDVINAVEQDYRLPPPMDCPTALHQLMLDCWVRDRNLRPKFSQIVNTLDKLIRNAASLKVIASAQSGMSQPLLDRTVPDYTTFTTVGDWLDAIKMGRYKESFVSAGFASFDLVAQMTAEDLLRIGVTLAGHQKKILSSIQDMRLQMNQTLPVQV
OXSR1, sequence (O95747 whole entry): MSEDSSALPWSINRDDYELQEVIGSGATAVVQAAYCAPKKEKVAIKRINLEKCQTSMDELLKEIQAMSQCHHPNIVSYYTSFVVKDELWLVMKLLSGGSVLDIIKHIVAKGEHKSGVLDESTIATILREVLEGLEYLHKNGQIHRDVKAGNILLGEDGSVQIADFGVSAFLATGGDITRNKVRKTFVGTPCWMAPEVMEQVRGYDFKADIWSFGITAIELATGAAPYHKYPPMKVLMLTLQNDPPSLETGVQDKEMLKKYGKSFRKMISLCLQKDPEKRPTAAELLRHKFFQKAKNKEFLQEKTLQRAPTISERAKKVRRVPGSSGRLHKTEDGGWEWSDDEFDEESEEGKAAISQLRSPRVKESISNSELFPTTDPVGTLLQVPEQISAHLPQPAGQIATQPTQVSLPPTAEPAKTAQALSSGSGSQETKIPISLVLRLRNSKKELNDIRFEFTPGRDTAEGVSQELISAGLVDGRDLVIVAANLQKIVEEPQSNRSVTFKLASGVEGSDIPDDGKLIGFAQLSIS
YWHAZ, sequence (P63104 whole entry): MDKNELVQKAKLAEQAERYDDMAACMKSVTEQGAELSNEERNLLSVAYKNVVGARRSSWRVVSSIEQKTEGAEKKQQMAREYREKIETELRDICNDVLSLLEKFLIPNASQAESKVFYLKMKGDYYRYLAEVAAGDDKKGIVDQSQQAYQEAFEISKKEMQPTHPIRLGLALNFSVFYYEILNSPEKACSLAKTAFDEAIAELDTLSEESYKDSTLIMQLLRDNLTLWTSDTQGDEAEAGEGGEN
NEK6, sequence (Q9HC98 whole entry): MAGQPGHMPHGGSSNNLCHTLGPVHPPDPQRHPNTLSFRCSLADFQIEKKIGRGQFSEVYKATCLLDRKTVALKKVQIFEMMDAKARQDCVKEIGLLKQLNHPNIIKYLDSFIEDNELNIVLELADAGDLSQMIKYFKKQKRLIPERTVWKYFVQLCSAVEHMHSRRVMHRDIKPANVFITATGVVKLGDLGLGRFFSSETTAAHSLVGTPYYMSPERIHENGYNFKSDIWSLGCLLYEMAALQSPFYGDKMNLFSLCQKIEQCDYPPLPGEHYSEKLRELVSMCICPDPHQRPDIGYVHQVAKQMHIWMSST
GSK3B, sequence (P49841 whole entry): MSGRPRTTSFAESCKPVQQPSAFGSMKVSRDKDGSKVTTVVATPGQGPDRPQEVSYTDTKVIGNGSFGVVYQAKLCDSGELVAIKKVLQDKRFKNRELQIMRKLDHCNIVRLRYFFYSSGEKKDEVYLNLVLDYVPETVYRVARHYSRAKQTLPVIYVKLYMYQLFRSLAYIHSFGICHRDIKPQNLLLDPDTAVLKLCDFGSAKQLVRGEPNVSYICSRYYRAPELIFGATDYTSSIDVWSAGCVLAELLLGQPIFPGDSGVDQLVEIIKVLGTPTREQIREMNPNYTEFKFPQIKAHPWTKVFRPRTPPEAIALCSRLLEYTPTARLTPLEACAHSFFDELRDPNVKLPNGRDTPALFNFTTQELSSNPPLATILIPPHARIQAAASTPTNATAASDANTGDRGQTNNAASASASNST
PDIK1L, sequence (Q8N165 whole entry): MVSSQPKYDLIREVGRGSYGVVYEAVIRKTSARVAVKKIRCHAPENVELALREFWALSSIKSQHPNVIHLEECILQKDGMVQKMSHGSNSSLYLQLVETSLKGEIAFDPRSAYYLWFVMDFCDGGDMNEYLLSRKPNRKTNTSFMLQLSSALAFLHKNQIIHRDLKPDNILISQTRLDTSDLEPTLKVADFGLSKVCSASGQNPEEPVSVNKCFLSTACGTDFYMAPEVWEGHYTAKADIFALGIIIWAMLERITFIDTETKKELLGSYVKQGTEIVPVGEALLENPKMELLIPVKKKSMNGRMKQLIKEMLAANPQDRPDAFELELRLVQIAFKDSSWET
HCK, sequence (P08631 whole entry): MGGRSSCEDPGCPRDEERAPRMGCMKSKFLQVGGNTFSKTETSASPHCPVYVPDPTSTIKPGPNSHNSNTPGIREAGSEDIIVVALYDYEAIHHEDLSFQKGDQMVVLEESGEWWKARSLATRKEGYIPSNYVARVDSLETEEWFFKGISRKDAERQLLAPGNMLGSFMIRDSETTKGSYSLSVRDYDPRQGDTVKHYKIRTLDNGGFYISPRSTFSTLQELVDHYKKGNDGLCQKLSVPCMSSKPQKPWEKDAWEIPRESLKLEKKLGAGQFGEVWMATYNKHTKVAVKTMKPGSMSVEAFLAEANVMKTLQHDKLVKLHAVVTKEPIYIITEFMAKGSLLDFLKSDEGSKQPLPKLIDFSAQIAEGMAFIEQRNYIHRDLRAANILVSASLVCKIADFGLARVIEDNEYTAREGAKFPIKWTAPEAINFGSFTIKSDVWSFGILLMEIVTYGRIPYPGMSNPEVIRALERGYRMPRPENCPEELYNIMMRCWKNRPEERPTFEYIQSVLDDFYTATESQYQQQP
MAPK11, sequence (Q15759 whole entry): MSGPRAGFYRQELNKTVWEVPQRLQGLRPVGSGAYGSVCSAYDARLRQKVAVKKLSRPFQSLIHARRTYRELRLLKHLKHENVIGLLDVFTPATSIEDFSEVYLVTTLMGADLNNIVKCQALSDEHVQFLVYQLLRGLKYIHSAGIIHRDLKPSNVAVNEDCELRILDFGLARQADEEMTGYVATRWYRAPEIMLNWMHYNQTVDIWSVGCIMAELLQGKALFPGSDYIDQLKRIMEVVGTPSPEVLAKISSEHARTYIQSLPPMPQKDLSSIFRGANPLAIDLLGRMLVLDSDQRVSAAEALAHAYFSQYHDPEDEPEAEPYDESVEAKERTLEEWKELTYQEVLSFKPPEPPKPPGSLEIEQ

COc1nc(N[C@H]2CC[C@H](NS(=O)(=O)CC(C)C)CC2)nc2[nH]nc(N3CCOC[C@H]3C)c12 [compound 39, N-(trans-4-((4-Methoxy-3-((R)-3-methylmorpholino)-1H-pyrazolo[3,4-d]pyrimidin-6-yl)amino)cyclohexyl)-2-methylpropane-1-sulfonamide]
≥ 20 µM: all assays above
